Literature values, collected in patent US20020042084A1, “Detection of NAALADase inhibitors” (Boehringer Ingelheim Pharma KG, priority 2000, published 2002).
Residues, ends and D or L forms follow the SMILES beside them.

System: NAALADase
Details: substrate specificity; Serval et al. 1992

| Compound | hydrolysis by NAALADase |
| --- | --- |
| C[C@H](N)C(=O)N[C@@H](CCC(=O)O)C(=O)O [Ala-Glu] (H-Ala-Glu-OH) | not hydrolyzed |
| CC(=O)N[C@@H](CC(=O)N[C@@H](CCC(=O)O)C(=O)O)C(=O)O [β-NAAG] | not hydrolyzed |
| CC(=O)NC(CC(=O)O)C(=O)NC(CCC(=O)O)C(=O)O [D-NAAG] (Ac-Asp-Glu-OH; configuration not given here) | not hydrolyzed |
